These results are taken from patent US12577522B2, “System and method for screening therapeutic agents” (Carnegie Mellon University, priority 2020, dated 2026).

One data set relates to MDA-MB-231 cell. The note with it: previously reported; cited from earlier work.
In data set [1] the test system is MDA-MB-231 human breast cancer cell line mouse xenografts (tumor fragments). Put plainly: 2D 96-well plate control: tumor fragment drug screening, live/dead viability and COMPUSYN combination index. It is filed as cell-based. Conditions: 2D 96-well control, three days, drug refreshed every 12 h.
Data set [2] can be described thus: Drug gradient characterization in 3D collagen scaffold by confocal microscopy. It is filed as physicochemical. Conditions: confocal fluorescence; doxorubicin after 24 h, left to right channel.
The subject of data set [3] is MDA-MB-231 human breast cancer cell line mouse xenografts (tumor fragments). The experiment in a line: 3D ECM microsystem (collagen tumor-on-a-chip): tumor fragment drug screening, live/dead viability and COMPUSYN combination index. It counts as cell-based. The note with it: three days.

As to `COc1cccc2c1C(=O)c1c(O)c3c(c(O)c1C2=O)C[C@@](O)(C(=O)CO)C[C@@H]3O[C@H]1C[C@H](N)[C@H](O)[C@H](C)O1` [doxorubicin], the “median effect dose (Dm)” value with MDA-MB-231 cell is listed as “much lower than 4-hydroxycyclophosphamide”. The “tumor viability (live/dead staining)” value in data set [1] was “dose-dependent decrease in viability”; in data set [3] (3D ECM microsystem, drug replenished every 12 h) it was “dose-dependent decrease in viability”. In addition, in data set [2], the “diffusion profile in 3D collagen scaffold” value was “approximately linear concentration profile”. Moreover, the “viability in 3D ECM microsystem relative to 2D controls” value in data set [3] (doses in 2D matched to 48 h simulated concentration) is reported as “lower viability compared to 2D controls”.
